In brackets after ≈: the same amount, converted by molar mass.
Experiments:
[1] = system: Streptococcus faecalis ATCC 10541; assay: Antibacterial activity (minimum growth inhibitory concentration), agar dilution method; type: cell-based; settings: Enterococcus faecalis, ATCC10541; Streptococcus faecalis ATCC 10541, pH 7.0, agar dilution method; read-out: minimum growth inhibitory concentration, SF
Experimental: (§1) Antibacterial activities of Compounds (I) against various bacteria are shown by the minimum growth inhibitory concentration (μg/ml) in Table 3. The minimum growth inhibitory concentration was measured at pH 7.0 according to the agar dilution method. In the table, bacteria are indicated by the following letters.
SF: Streptococcus faecalis ATCC 10541

[2] = system: Staphylococcus aureus ATCC 6538P; assay: as above; type: cell-based; settings: ATCC6538P, pH 7.0, agar dilution method, read-out: minimum growth inhibitory concentration, SA
Experimental: as §1
SA: Staphylococcus aureus ATCC 6538P

Bacillus subtilis 10707 = assay: as above; type: cell-based; settings: Bacillus subtilis 10707, pH 7.0, agar dilution method; read-out: minimum growth inhibitory concentration, BS
Experimental: as §1
BS: Bacillus subtilis 10707

[3] = system: Proteus vulgalis ATCC 6897; assay: as above; type: cell-based; settings: pH 7, read-out: minimum growth inhibitory concentration, PV
Experimental: as §1
PV: Proteus vulgalis ATCC 6897

[4] = system: Klebsiella pneumoniae ATCC 10031; assay: as above; type: cell-based; settings: ATCC10031; Klebsiella pneumoniae ATCC 10031, pH 7.0, agar dilution method; read-out: minimum growth inhibitory concentration, KP
Experimental: as §1
KP: Klebsiella pneumoniae ATCC 10031

Sarcoma 180 solid tumour = assay: animal or person; settings: for CIc: CI of test compound divided by CI of mitomycin C as control in the same condition; for ED50: Mus musculus, Sarcoma-180, iv, 168 h; for CI (LD50/ED50): chemotherapeutic index
Source text: CIc : Value given by division of CI of each test compound by CI of
determination of antitumour activity of the test compound. A CIc
5×10^6 cells of Sarcoma 180 solid tumour were intraperitoneally implanted into ddY mice. 7 days later, ascites cells were sampled. The cells were washed once with a sterilized physiological sodium chloride solution and were used to prepare a cell suspension containing 5×10^7 cells per ml with a sterilized physiological sodium chloride solution. On each occasion, 0.1 ml of the cell suspension was subcutaneously implanted into the right axilla of a male mouse (ddY strain; body weight 20±2 g).
The anti-tumour activity was determined in the following manner. 7 days after the implantation, the major axis (a) and the minor axis (b) of the tumour were measured to calculate a value of "a×b^2 /2" which corresponds to the volume of the tumour. The anti-tumour activity was expressed by the ratio (T/C) of the volume (T) of the tumours of the group of animals administered with the test compound to the corresponding volume (C) of tumours of the untreated animals.
On graph paper, T/C was indicated by an arithmetic scale on the longitudinal axis and the administered amount of the test compound was indicated by a logarithmic scale on the lateral axis.

Acute toxicity = settings: mouse, in vivo, ip; ddY mice, intraperitoneally once, 14 days observation
Experimental: Each animal of the test group consisting of 5 ddY mice was administered intraperitoneally once with a test compound. […] The LD50 was determined by Beherns Kaerber's method.

peripheral leucocytes = assay: Effect on the peripheral leucocytes number; type: in vivo, mouse (ddY strain); settings: minimum dose reducing peripheral leucocytes number to 4000/mm^3; tumour-carrying ddY mice, intraperitoneal, 4 days after administration
Experimental: WBC4000 : Minimum dose of a test compound which reduces the
peripheral leucocytes number to 4000/mm^3.
Sarcoma 180 solid tumour cells (5×10^6) were subcutaneously implanted into the right axilla of each mouse (body weight 20±2 g) of a group consisting of 5 male mice (ddY strain). 24 hours after implantation,a test compound was intraperitoneally administered to each animal. 4 days after the administration, blood (each 0.02 ml) was collected from the suborbital plexus vein of each tumour-carrying animal. The collected sample of blood was dispersed in 9.98 ml of Cell-Kit Seven solution. One drop of saponin solution was added to the sample to dissolve erythrocytes and then a microcell counter was used to count the number of leucocytes. […] The relationship between the number of peripheral leucocytes and the dose of the test compound was plotted and the dose (i.e., WBC4000) corresponding to 4000 peripheral leucocytes/mm^3 (about half the number of leucocytes of normal mice) was obtained.

Solubility in water = type: physicochemical; settings: aqueous buffer; 0.03M phosphate buffer (pH 7.0), 22° C., 15 minutes
Experimental: 1 mg of a test compound was added to 100 μl of 0.03M phosphate buffer (pH 7.0). The mixture was stirred at 22° C. for 15 minutes and filtered through Ekicrodisc 3 (disposable filter unit, Gelman Sciences Japan Co.) to remove insoluble matters. The filtrate is a saturated solution of the test compound. Predetermined amount of the saturated solution was injected into a high performance liquid chromatograph [column: YMC-A212 (C8) .phi.6 mm, 150 mm, eluting solvent: 0.01M-ammonium acetate/methanol, wave length for detection: 254 nm] and peak area of the chromatogram was calculated. Separately, a solution of the test compound in methanoL having a certain concentration of the compound was similarly subjected to the chromatography to make the calibration curve. The solubility of the test compound was calculated by the calibration curve.

Structure (SMILES)	MIC [1] [µg/mL]	MIC [2] [µg/mL]	MIC (Bacillus subtilis 10707) [µg/mL]	MIC [3] [µg/mL]	MIC [4] [µg/mL]	CIc (Sarcoma 180 solid tumour)	ED50 (Sarcoma 180 solid tumour) [mg/kg]	CI (LD50/ED50) (Sarcoma 180 solid tumour)	LD50 at 336 h (Acute toxicity) [mg/kg]	WBC4000 (peripheral leucocytes) [mg/kg]	solubility at 0.25 h (Solubility in water) [µg/mL]
CO[C@@]12[C@H](COC(N)=O)C3=C(C(=O)C(C)=C(NCCSC(C)=S)C3=O)N1C[C@@H]1N[C@@H]12 [Compound 26]	< 0.02	< 0.02	< 0.02	0.63 (≈ 1.39 µM)	0.078 (≈ 0.172 µM)	1.6	1.2	5.5	6.6	7.6	260 (≈ 575 µM)
CO[C@@]12[C@H](COC(N)=O)C3=C(C(=O)C(C)=C(NCCSC(=O)c4ccccc4)C3=O)N1C[C@@H]1N[C@@H]12 [Compound 13]	0.039 (≈ 0.0782 µM)	< 0.02	< 0.02	5 (≈ 10 µM)	1.3 (≈ 2.61 µM)	0.91	4.1	1.5	6	> 5	73 (≈ 146 µM)
CO[C@@]12[C@H](COC(N)=O)C3=C(C(=O)C(C)=C(NCCCCCCSC(C)=O)C3=O)N1C[C@@H]1N[C@@H]12 [Compound 11]	0.16 (≈ 0.325 µM)	0.16 (≈ 0.325 µM)	0.16 (≈ 0.325 µM)	2.5 (≈ 5.08 µM)	1.3 (≈ 2.64 µM)	3.9	27	> 7.4	> 200	31.3	210 (≈ 426 µM)
CO[C@@]12[C@H](COC(N)=O)C3=C(C(=O)C(C)=C(NCCCSC(C)=O)C3=O)N1C[C@@H]1N[C@@H]12 [Compound 7]	< 0.02	0.039 (≈ 0.0866 µM)	< 0.02	2.5 (≈ 5.55 µM)	0.31 (≈ 0.688 µM)	0.88	5.2	2.2	11.3	> 25	3500 (≈ 7770 µM)
CO[C@@]12[C@H](COC(N)=O)C3=C(C(=O)C(C)=C(NCCCCSC(C)=O)C3=O)N1C[C@@H]1N[C@@H]12 [Compound 9]	< 0.02	0.039 (≈ 0.084 µM)	< 0.02	5 (≈ 10.8 µM)	0.31 (≈ 0.667 µM)	1.6	21.7	4.1	90	65.2	2000 (≈ 4310 µM)
CC(=O)SCCNC1=C(C)C(=O)C2=C(C1=O)[C@H](COC(N)=O)[C@@]1(O)[C@@H]3[C@H](CN21)N3C (some centres unmarked) [Compound 2]	3.1 (≈ 7.1 µM)	3.1 (≈ 7.1 µM)	0.78 (≈ 1.79 µM)	25 (≈ 57.3 µM)	6.3 (≈ 14.4 µM)	1.9	5.6	4.7	26.3	14.1	8900 (≈ 20400 µM)
CO[C@@]12[C@H](COC(N)=O)C3=C(C(=O)C(C)=C(NCCSC(C)=O)C3=O)N1C[C@H]1[C@@H]2N1C (some centres unmarked) [Compound 3]	0.039 (≈ 0.0866 µM)	0.078 (≈ 0.173 µM)	< 0.02	20 (≈ 44.4 µM)	1.3 (≈ 2.89 µM)	0.88	5.6	1.7	9.4	11.0	3800 (≈ 8430 µM)
CO[C@@]12[C@H](COC(N)=O)C3=C(C(=O)C(C)=C(NCCSC(=O)c4ccc(Br)cc4)C3=O)N1C[C@@H]1N[C@@H]12 [Compound 21]	0.039 (≈ 0.0675 µM)	< 0.02	< 0.02	5 (≈ 8.66 µM)	1.3 (≈ 2.25 µM)	1.9	2	4.7	9.4	11.5	4.7 (≈ 8.14 µM)
CO[C@@]12[C@H](COC(N)=O)C3=C(C(=O)C(C)=C(NCCSC(C)=O)C3=O)N1C[C@@H]1N[C@@H]12 [Compound 1, 7-N-[(2-acetylthio)ethyl]mitomycin]	< 0.02	< 0.02	< 0.02	1.3 (≈ 2.98 µM)	0.078 (≈ 0.179 µM)	1.2	2.3	2.4	5.6	9.5	5600 (≈ 12800 µM)
CC(=O)SCCCNC1=C(C)C(=O)C2=C(C1=O)[C@H](COC(N)=O)[C@@]1(O)[C@@H]3[C@H](CN21)N3C (some centres unmarked) [Compound 8, 7-N-(3-acetylthiopropyl)mitomycin D]	50 (≈ 111 µM)	> 100	13 (≈ 28.9 µM)	–	–	–	–	–	–	–	9600 (≈ 21300 µM)
C=C1C2=C(C(=O)C(C)=C(NCCSC(C)=O)C2=O)N2C[C@H]3[C@H](N3C)[C@]12O (some centres unmarked) [Compound 4]	> 100	50 (≈ 133 µM)	6.3 (≈ 16.8 µM)	100 (≈ 266 µM)	25 (≈ 66.6 µM)	1.6	14.9	3.0	45	27.1	1900 (≈ 5060 µM)
CO[C@@]12[C@H](COC(N)=O)C3=C(C(=O)C(C)=C(NCCCCCSC(C)=O)C3=O)N1C[C@@H]1N[C@@H]12 [Compound 10]	0.039 (≈ 0.0815 µM)	0.078 (≈ 0.163 µM)	0.078 (≈ 0.163 µM)	5 (≈ 10.4 µM)	1.3 (≈ 2.72 µM)	> 1.1	37.5	> 2.0	> 75	> 75	1000 (≈ 2090 µM)

From patent US4771068A, “Mitomycin derivatives having anti-tumor and antibacterial utility” (priority 1985, dated 1988)
